# Results taken from US11613547B2 (priority 2019, dated 2023).
# “And” between values parts separate entries of the source, which are not always exact repeats. Identical values can stand only once. “Also recorded” adds a separate entry of the source. Like-named read-outs stand apart in the source and are kept apart here.
# What was measured:
# [1] = target: T1, mouse delta opioid receptor (mDOR) (Mus musculus, UniProt P32300); test: BRET assay, G-protein activation, mDOR; type: cell-based
# T1 construct: expressed in transfected cells; host or cells: HEK-293T, transient (PEI), with BRET sensor cDNAs
# mKOR [2] = target: T2, mKOR (Mus musculus, UniProt P33534); test: Radioligand competition binding ([125I]IBNtxA), CHO membranes, mKOR; details: vs 125IBNtxA (0.1 nM), mean ± SEM
# T2 construct: expressed in transfected cells
# [3] = target: T3, rat kappa opioid receptor (rKOR) (Rattus norvegicus, UniProt P34975); test: BRET assay, arrestin recruitment, rKOR; type: cell-based; details: BRET
# T3 construct: expressed in transfected cells; host or cells: HEK-293T, transient (PEI), with BRET sensor cDNAs
# mMOR [4] = target: T4, mMOR (Mus musculus, UniProt P42866); test: [35S]GTPγS functional assay, mMOR; type: biochemical; details: for EC50: nM ± SEM
# T4 construct: expressed in transfected cells
# hKOR [5] = target: T5, hKOR (Homo sapiens, UniProt P41145); test: cAMP inhibition assay (GloSensor, HEK 293T), hKOR; type: cell-based; details: for Bias factor toward G protein, hKOR: cAMP inhibition vs Tango, against U50,488H as control; for EC50: read-out: Gi EC50 hKOR
# T5 construct: expressed in transfected cells; host or cells: HEK 293T (ATCC CRL-11268), transient
# hMOR [6] = target: T6, hMOR (Homo sapiens, UniProt P35372); test: Tango β-arrestin recruitment assay, hMOR; type: cell-based; details: Tango
# T6 construct: expressed in transfected cells; host or cells: HEK 293T (ATCC CRL-11268), transient
# mKOR [7] = target: T2, mKOR; test: [35S]GTPγS functional assay, mKOR; type: biochemical; details: for EC50: nM ± SEM
# mMOR [8] = target: T4, mMOR; test: Radioligand competition binding ([125I]IBNtxA), CHO membranes, mMOR; details: vs 125IBNtxA (0.1 nM), mean ± SEM
# [9] = target: T1, mouse delta opioid receptor (mDOR); test: BRET assay, arrestin recruitment, mDOR; type: cell-based; details: mDOR, BRET
# [10] = target: T7, mouse mu opioid receptor (mMOR) (Mus musculus, UniProt P42866); test: cell-based; type: cell-based
# T7 construct: expressed in transfected cells; host or cells: HEK-293T, transient (PEI), with BRET sensor cDNAs
# hDOR [11] = target: T8, hDOR (Homo sapiens, UniProt P41143); test: Tango β-arrestin recruitment assay, hDOR; type: cell-based; parameters: expressed in transfected cells; host or cells: HTLA cells expressing TEV fused-beta-Arrestin2
# [12] = target: T7, mouse mu opioid receptor (mMOR); test: cell-based; type: cell-based; remark: listed apart in the source
# hDOR [13] = target: T8, hDOR; test: cAMP inhibition assay, hDOR; type: cell-based; parameters: expressed in transfected cells
# hKOR [14] = target: T5, hKOR; test: Tango β-arrestin recruitment assay, hKOR; type: cell-based; details: for Arrestin pEC50±SEM hKOR / EC50: WT-hKOR
# mDOR [15] = target: T9, mDOR (Mus musculus, UniProt P32300); test: [35S]GTPγS functional assay, mDOR; type: biochemical
# T9 construct: expressed in transfected cells
# [16] = target: T3, rat kappa opioid receptor (rKOR); test: BRET assay, G-protein activation, rKOR; type: cell-based; details: for EC50: read-out: Gi EC50 rKOR
# hMOR [17] = target: T6, hMOR; test: cell-based; type: cell-based
# mDOR [18] = target: T9, mDOR; test: Radioligand competition binding ([125I]IBNtxA), CHO membranes, mDOR; details: vs 125IBNtxA (0.1 nM), CHO membranes, mean ± SEM
# Y312W-hKOR [19] = target: T10, Y312W-hKOR (Homo sapiens, UniProt P41145, Y312W); test: cAMP inhibition assay, Y312W-hKOR mutant; type: cell-based; parameters: expressed in transfected cells; host or cells: HEK 293T (inferred from the general cAMP method)
# Y312W-hKOR [20] = target: T10, Y312W-hKOR; test: Tango-arrestin recruitment assay, Y312W-hKOR mutant; type: cell-based; parameters: expressed in transfected cells; details: Tango, compared with wild-type KOR
# C57BL/6J mice = test: 55° C. warm-water tail-withdrawal assay; type: in vivo, mouse; details: icv, 55° C. tail withdrawal
# Procedure: Tail-withdrawal assay The 55° C. warm-water tail-withdrawal assay was conducted in mice as a measure of acute thermal antinociception as described previously (Reilley et al., 2010). Briefly, each mouse was tested for baseline tail-withdrawal latency prior to drug administration. Following drug administration, the latency for each mouse to withdraw the tail was measured every 10 minutes until latency returned to the baseline value. A maximum response time of 15 seconds was utilized to prevent tissue damage. […] Data are reported as percent antinociception, calculated by the equation: % antinociception=100×[(test latency−baseline latency)/(15−baseline latency)]. This was utilized to account for innate variability between mice. Compounds were administered either, […] (IP) or intracerebroventricular (icv) and the analgesic action of compounds was assessed at the peak effect as described previously (Haley and McCormick, 1957). In brief, mice were anesthetized using isoflurane. A small incision was made, and the drug (2 μl/mouse) was injected (using a 10 μL Hamilton syringe fitted to a 27-gauge needle) into the right lateral ventricle at the following coordinates: 2 mm caudal to bregma, 2 mm lateral to sagittal suture, and 2 mm in depth. Mice were tested for analgesia at the peak effect post injection.
structure (smiles),measurement,setting,value
"O=C(N[C@@H]1C=CC2[C@H]3Cc4ccc(O)c5c4[C@@]2(CCN3CC2CC2)[C@H]1O5)c1cccc(I)c1 (some centres unmarked) [MP1104, reference compound]",EC50,"[1]; mDOR, BRET",1.4 nM
same,G-Protein activation pEC50 ± SEM,"[1]; mDOR, BRET",8.9 ± 0.06
same,G-Protein activation Emax % ± SEM,"[1]; mDOR, BRET, normalized to DPDPE",91 ± 1.7%
same,Ki,mKOR [2],0.0064 nM
same,Arrestin pEC50±SEM rKOR,[3],8.94±0.07
same,EC50,[3],1.14 nM
same,Arrestin Emax rKOR,"[3]; normalized to Emax of U50,488H",89±2.6
same,EC50,mMOR [4]; [35S]GTPγS,0.21 ± 0.03 nM
same,mMOR Emax,"mMOR [4]; [35S]GTPγS, relative to DAMGO",103 ± 2%
same,Gi pEC50±SEM hKOR,hKOR [5]; cAMP inhibition,11.74±0.04
same,"Bias factor toward G protein, hKOR",hKOR [5],0.18 and 0.2
same,Gi Emax hKOR,"hKOR [5]; cAMP inhibition, normalized to Emax of U50,488H",107±1
same,EC50,hKOR [5]; cAMP inhibition,0.00184 nM
same,Arrestin pEC50±SEM hMOR,hMOR [6],9.24±0.08
same,EC50,hMOR [6],0.573 nM
same,Arrestin Emax hMOR,hMOR [6]; normalized to Emax of DAMGO,90±2.28
same,EC50,mKOR [7]; [35S]GTPγS,0.027 ± 0.002 nM
same,mKOR Emax,"mKOR [7]; [35S]GTPγS, relative to U50,488H",104 ± 2%
same,Ki,mMOR [8],0.021 nM
same,Arrestin recruitment pEC50 ± SEM,[9],7.6 ± 0.11
same,EC50,[9],26 nM
same,Arrestin recruitment Emax % ± SEM,[9]; normalized to DPDPE,40 ± 1.7%
same,Arrestin Emax mMOR,[10],53±1.6
same,Arrestin pEC50±SEM mMOR,[10],9.55±0.12
same,EC50,[10]; read-out: Arrestin EC50 mMOR,0.285 nM
same,Arrestin recruitment pEC50 ± SEM,"hDOR [11]; hDOR, Tango",8.4 ± 0.06
same,EC50,"hDOR [11]; hDOR, Tango",3.73 nM
same,Arrestin recruitment Emax % ± SEM,"hDOR [11]; hDOR, Tango, normalized to DPDPE or DADLE",189 ± 5.5%
same,"Bias factor toward G-protein, mMOR",[12],0.1
same,Gi Emax mMOR,[12],62±2
same,Gi pEC50±SEM mMOR,[12],9.2±0.11
same,EC50,[12]; read-out: Gi EC50 mMOR,0.66 nM
same,EC50,hDOR [13]; hDOR,0.4 nM
same,cAMP inhibition pEC50 ± SEM,hDOR [13]; hDOR,9.4 ± 0.04
same,cAMP inhibition Emax % ± SEM,"hDOR [13]; hDOR, normalized to DPDPE or DADLE",99 ± 1.1%
same,Arrestin pEC50±SEM hKOR,hKOR [14]; Tango,10.4±0.06
same,EC50,hKOR [14]; Tango,0.0394 nM
same,Arrestin Emax hKOR,"hKOR [14]; Tango, normalized to Emax of U50,488H",117±2
same,EC50,"mDOR [15]; [35S]GTPγS, nM ± SEM",0.41 ± 0.11 nM
same,mDOR Emax,"mDOR [15]; [35S]GTPγS, relative to DPDPE",88 ± 0%
same,Gi pEC50±SEM rKOR,[16]; BRET,10.14±0.04
same,"Bias factor toward G-protein, rKOR","[16]; BRET assays, against U50,488H as control",0.23
same,Gi Emax rKOR,"[16]; BRET, normalized to Emax of U50,488H",93±1
same,EC50,[16]; BRET,0.073 nM
same,"Bias factor toward G protein, hMOR",hMOR [17],0.57 and 0.6
same,Gi Emax hMOR,hMOR [17],94±1
same,Gi pEC50±SEM hMOR,hMOR [17],10.13±0.05
same,EC50,hMOR [17]; read-out: Gi EC50 hMOR,0.074 nM
same,Ki,mDOR [18],0.08 ± 0.01 nM
"N=C(N)NCc1cccc(C(=O)N[C@@H]2CCC3C4Cc5ccc(O)c6c5[C@@]3(CCN4CC3CC3)C2O6)c1 (stereo partly drawn) [MP1208, N-((7R,12bS)-3-(Cyclopropylmethyl)-9-hydroxy-2,3,4,4a,5,6,7,7a-octahydro-1H-4,12-methanobenzofuro[3,2-e]isoquinolin-7-yl)-3-(guanidinomethyl)benzamide]",Gi pEC50±SEM Y312W-hKOR,Y312W-hKOR [19]; cAMP inhibition,10.44±0.05
same,Emax,Y312W-hKOR [19]; read-out: Gi Emax Y312W-hKOR,97 ± 1%
same,EC50,"[1]; mDOR, BRET",26.6 nM
same,G-Protein activation pEC50 ± SEM,"[1]; mDOR, BRET",7.6 ± 0.20
same,Emax,[1]; read-out: G-Protein activation Emax % ± SEM,58 ± 3.3%
same,Ki,mKOR [2],0.28 nM
same,arrestin recruitment at rKOR,[3],no recruitment of βarrestin-2; also recorded: no arrestin recruitment was observed
same,Emax,mMOR [4],54 ± 0.7%
same,EC50,mMOR [4]; [35S]GTPγS,1.1 nM and 1.13 nM
same,Emax,"hKOR [5]; HEK-293T, read-out: Gi Emax hKOR",96 ± 1.9%
same,Gi pEC50±SEM hKOR,hKOR [5]; cAMP inhibition,9.9±0.07
same,"Bias factor toward G protein, hKOR",hKOR [5],23
same,EC50,hKOR [5]; cAMP inhibition,0.14 nM
same,arrestin recruitment at hMOR,hMOR [6],no recruitment of arrestin was seen; also recorded: no arrestin recruitment was observed
same,Emax,mKOR [7],43 ± 0.8%
same,EC50,mKOR [7]; [35S]GTPγS,1.4 nM and 1.36 nM
same,Ki,mMOR [8],0.34 ± 0.01 nM
same,arrestin recruitment at Y312W-hKOR,Y312W-hKOR [20],further reduction of arrestin recruitment; also recorded: reduced arrestin measurement
same,arrestin recruitment at mMOR,[10],no recruitment of βarrestin-2; also recorded: no arrestin recruitment was observed
same,Arrestin recruitment pEC50 ± SEM,"hDOR [11]; hDOR, Tango",5.5 ± 0.27
same,EC50,"hDOR [11]; hDOR, Tango",3620 nM
same,Emax,hDOR [11]; read-out: Arrestin recruitment Emax % ± SEM,62 ± 16.7%
same,Gi pEC50±SEM mMOR,[12],8.64±0.29
same,Emax,[12]; read-out: Gi Emax mMOR,41 ± 3%
same,cAMP inhibition pEC50 ± SEM,hDOR [13]; hDOR,8.6 ± 0.13
same,Emax,hDOR [13]; read-out: cAMP inhibition Emax % ± SEM,39 ± 1.8%
same,Emax,hKOR [14],48 ± 2.4%
same,Arrestin pEC50±SEM hKOR,hKOR [14]; Tango,7.79±0.14
same,EC50,hKOR [14]; Tango,16.4 nM
same,Emax,mDOR [15],10 to 15%
same,efficacy at mDOR,mDOR [15]; [35S]GTPγS,only weak efficacy
same,IC50,"mDOR [15]; [35S]GTPγS, antagonism vs 100 nM agonist",11.4 ± 0.3 nM
same,Gi pEC50±SEM rKOR,[16]; BRET,8.97±0.29
same,EC50,[16]; BRET,1.1 nM
same,Emax,[16]; read-out: Gi Emax rKOR,40 ± 2.4%
same,EC50,hMOR [17],1.86 nM
same,Emax,"hMOR [17]; HEK-293T, read-out: Gi Emax hMOR",42 ± 1.3%
same,EC50,hMOR [17]; read-out: Gi EC50 hMOR,0.008 nM
same,antinociceptive ED50 (95% CI),C57BL/6J mice,19.8 (12.6-34.0) nmol and 19.8 nmol
same,Ki,mDOR [18],19.3 nM
